What was measured:
[1] = target: T1, HIS-KRAS (G12C, aa 2-185) (Homo sapiens, UniProt P01116, G12C); test: KRas G12C binding assay (TR-FRET, SOS1-mediated BODIPY FL GTP nucleotide exchange); conditions: GDP-loaded HIS-KRAS (G12C) 3 nM, 1 hour pre-incubation with compound, 4 hours with SOS1 ExD and BODIPY FL GTP at 25° C
T1 construct: HIS-KRAS (G12C, aa 2-185, Sino biological); purchased Sino biological
Description: Biological Example 1: KRas G12C Binding Assay
(§1) HIS-KRAS (G12C, aa 2-185, Sino biological) was diluted to 5 uM in EDTA buffer (20 mM HEPES, pH 7.4, 50 mM NaCl, 10 mM EDTA, 0.01% (v/v) Tween-20) and incubated for 30 min at 25° C. The EDTA pretreated HIS-KRAS (G12C) was diluted to 12 nM in assay buffer (25 mM HEPES, pH 7.4, 120 mM NaCl, 5 mM MgCl 2, 1 mM DTT, 0.01% (v/v) Tween 20, 0.1% (w/v) BSA) containing 120 nM GDP (Sigma) and MAb Anti 6HIS—Tb cryptate Gold (Cisbio) and incubated for 1 hour at 25° C. to prepare GDP-loaded HIS-KRAS (G12C). The GDP-loaded HIS-KRAS (G12C) was pre-incubation with diluted compounds in a 384-well plate (Greiner) for 1 hour, then purified SOS1 ExD (Flag tag, aa 564-1049) and BODIPY™ FL GTP (Invitrogen) were added to the assay wells (Final concentration: 3 nM HIS-KRAS (G12C), 2 uM SOS1 ExD, 80 nM BODIPY™ FL GTP, 21 ng/mL MAb Anti 6HIS—Tb cryptate Gold) and incubated for 4 hours at 25° C. TR-FRET signals were then read on Tecan Spark multimode microplate reader. The parameters were F486: Excitation 340 (35) nm, Emission 486 (10) nm, Lag time 100 μs, Integration time 200 μs; F515: Excitation 340 (35) nm, Emission 515 (10) nm, Lag time 100 μs, Integration time 200 μs. TR-FRET ratios for each individual wells were calculated by equation: TR-FRET ratio=(Signal F515/Signal F486)*10000. Then the data were analyzed using a 4-parameter logistic model to calculate IC50 values. The following table lists the IC50 values of certain compounds of the invention.

[2] = target: T2, GDP-loaded, histidine-tagged, truncated (1-169) KRAS G12C (Homo sapiens, UniProt P01116, G12C); test: KRas G12C in vitro covalent MS-based assay; assay type: binding; conditions: KRAS protein 2 uM, denaturing SEC-MS intact mass
T2 construct: histidine-tagged, truncated (1-169) KRAS proteins; His
Description: Biological Example 2: KRas G12C In Vitro Covalent MS-Based Assay
GDP-loaded, histidine-tagged, truncated (1-169) KRAS proteins (G12C, WT, G13D, as indicated) at 2 uM final concentration were incubated with the test compounds at the doses and time points indicated in a buffer containing 20 mmol/L HEPES pH 7.5, 150 mmol/L NaCl, 1 mmol/L MgCl 2, and 1 mmol/L DTT. Reactions were quenched by adding formic acid to 0.2%. Samples were buffer exchanged and analyzed by denaturing SEC-MS (Orbitrap Eclipse), Mobile phase: 30% ACN, 0.1% formic acid, 0.02% TFA. Raw data were analyzed by charge state deconvolution with BioPharma Finder 4.1 Intact Mass, ReSpect and Sliding Window algorithms. The masses were calculated via software for KRAS_G12C theoretical sequence and experimental compounds.

HIS-KRAS (G12V) = HIS-KRAS (G12V) (Homo sapiens, UniProt P01116, G12V); test: KRas G12V binding assay (TR-FRET, SOS1-mediated BODIPY FL GTP nucleotide exchange); conditions: GDP-loaded HIS-KRAS (G12V) 3 nM, 1 hour pre-incubation with compound, 4 hours with SOS1 ExD and BODIPY FL GTP at 25° C
Description: Biological Example 3: KRas G12V Binding Assay
as §1, with “(G12V)” for “(G12C, aa 2-185, Sino biological)”, “(G12V)” for “(G12C)”, “(G12V).” for “(G12C).”, “(G12V),” for “(G12C),”

Sequence of HIS-KRAS (G12V) (P01116 1-188 isoform P01116-2 G12V): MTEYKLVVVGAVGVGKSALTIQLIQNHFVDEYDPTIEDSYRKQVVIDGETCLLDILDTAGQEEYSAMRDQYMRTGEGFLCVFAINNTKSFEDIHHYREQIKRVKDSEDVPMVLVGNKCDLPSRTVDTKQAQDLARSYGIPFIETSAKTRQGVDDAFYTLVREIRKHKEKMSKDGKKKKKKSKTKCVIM
T1 sequence (P01116 2-185 isoform P01116-2 G12C): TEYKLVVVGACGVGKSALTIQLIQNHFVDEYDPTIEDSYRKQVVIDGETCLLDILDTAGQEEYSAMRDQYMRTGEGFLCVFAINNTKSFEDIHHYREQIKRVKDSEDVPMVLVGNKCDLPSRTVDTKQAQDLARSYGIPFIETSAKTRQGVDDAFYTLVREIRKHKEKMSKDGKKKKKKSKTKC
T2 sequence (P01116 1-169 isoform P01116-2 G12C): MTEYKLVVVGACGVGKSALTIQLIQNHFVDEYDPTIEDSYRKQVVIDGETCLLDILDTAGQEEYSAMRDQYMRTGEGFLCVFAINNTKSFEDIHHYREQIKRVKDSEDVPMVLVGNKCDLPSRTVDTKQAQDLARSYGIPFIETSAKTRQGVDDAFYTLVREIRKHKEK

SMILES | IC50 [1] [nM] | Binding Model [2] | IC50 (HIS-KRAS (G12V)) [nM]
C#Cc1c(F)ccc2cc(O)cc(-c3ncc4c(N5C[C@H]6CC[C@@H](C5)N6C(=O)C=C)nc(OCC56CCCN5CCC6)nc4c3F)c12 [Example 5, 1-((1R,5S)-3-(7-(8-ethynyl-7-fluoro-3-hydroxynaphthalen-1-yl)-8-fluoro-2-((tetrahydro-1H-pyrrolizin-7a(5H)-yl)methoxy)pyrido[4,3-d]pyrimidin-4-yl)-3,8-diazabicyclo[3.2.1]octan-8-yl)prop-2-en-1-one] | 0.37 | Covalent binding | 0.19
C#Cc1c(F)ccc2cc(O)cc(-c3ncc4c(N5C[C@H]6CC[C@@H](C5)N6C(=O)C=C)nc(OC[C@@]5(C)C[C@@H](F)CN5C)nc4c3F)c12 [Example 14, 1-((1R,5S)-3-(7-(8-ethynyl-7-fluoro-3-hydroxynaphthalen-1-yl)-8-fluoro-2-(((2R,4R)-4-fluoro-1,2-dimethylpyrrolidin-2-yl)methoxy)pyrido[4,3-d]pyrimidin-4-yl)-3,8-diazabicyclo[3.2.1]octan-8-yl)prop-2-en-1-one] | 0.99 | – | –
C#Cc1c(F)ccc2cc(O)cc(-c3ncc4c(N(C)C[C@@H]5CCCN5C(=O)C=C)nc(OC[C@@]56CCCN5C[C@H](F)C6)nc4c3F)c12 [Example 2, 1-[(2S)-2-{[(2-{[(2R,7aS)-2-fluoro-hexahydropyrrolizin-7a-yl]methoxy}-7-(8-ethynyl-7-fluoro-3-hydroxynaphthalen-1-yl)-8-fluoropyrido[4,3-d]pyrimidin-4-yl)(methyl)amino]methyl}pyrrolidin-1-yl]prop-2-en-1-one] | 0.41 | Covalent binding | 0.54
C#Cc1c(F)ccc2cc(O)cc(-c3ncc4c(N5C[C@H]6CC[C@@H](C5)N6C(=O)C=C)nc(OC[C@]5(C)C[C@@H](F)CN5C)nc4c3F)c12 [Example 13, 1-((1R,5S)-3-(7-(8-ethynyl-7-fluoro-3-hydroxynaphthalen-1-yl)-8-fluoro-2-(((2S,4R)-4-fluoro-1,2-dimethylpyrrolidin-2-yl)methoxy)pyrido[4,3-d]pyrimidin-4-yl)-3,8-diazabicyclo[3.2.1]octan-8-yl)prop-2-en-1-one] | 0.96 | – | 13.7
C#Cc1c(F)ccc2cc(O)cc(-c3ncc4c(NCC5(N(C)C(=O)C=C)CCCC5)nc(OCC56CCCN5CCC6)nc4c3F)c12 [Example 11, N-(1-(((7-(8-ethynyl-7-fluoro-3-hydroxynaphthalen-1-yl)-8-fluoro-2-((tetrahydro-1H-pyrrolizin-7a(5H)-yl)methoxy)pyrido[4,3-d]pyrimidin-4-yl)amino)methyl)cyclopentyl)-N-methylacrylamide] | 1.6 | – | 3.5
C#Cc1cccc2cc(O)cc(-c3ncc4c(N5CC6CCC(C5)N6C(=O)C=C)nc(OC[C@@]56CCCN5C[C@H](F)C6)nc4c3F)c12 [Example 1, 1-[3-(2-{[(2R,7aS)-2-fluoro-hexahydropyrrolizin-7a-yl]methoxy}-7-(8-ethynyl-3-hydroxynaphthalen-1-yl)-8-fluoropyrido[4,3-d]pyrimidin-4-yl)-3,8-diazabicyclo[3.2.1]octan-8-yl]prop-2-en-1-one] | 10.6 | – | 4.37
C#Cc1c(F)ccc2cc(O)cc(-c3ncc4c(N5C[C@H]6CC[C@@H](C5)N6C(=O)C=C)nc(OC[C@@H]5CCCCN5C)nc4c3F)c12 [Example 7, 1-((1R,5S)-3-(7-(8-ethynyl-7-fluoro-3-hydroxynaphthalen-1-yl)-8-fluoro-2-(((S)-1-methylpiperidin-2-yl)methoxy)pyrido[4,3-d]pyrimidin-4-yl)-3,8-diazabicyclo[3.2.1]octan-8-yl)prop-2-en-1-one] | 0.41 | – | 5.87
C#Cc1c(F)ccc2cccc(-c3ncc4c(N5C[C@H]6CC[C@@H](C5)N6C(=O)C=C)nc(OCC56CCCN5CCC6)nc4c3F)c12 [Example 3, 1-((1R,5S)-3-(7-(8-ethynyl-7-fluoronaphthalen-1-yl)-8-fluoro-2-((tetrahydro-1H-pyrrolizin-7a(5H)-yl)methoxy)pyrido[4,3-d]pyrimidin-4-yl)-3,8-diazabicyclo[3.2.1]octan-8-yl)prop-2-en-1-one] | 3.19 | – | 39.1
C#Cc1c(F)ccc2cc(O)cc(-c3ncc4c(N5C[C@H]6CC[C@@H](C5)N6C(=O)C=C)nc(OC[C@@H]5CCCN5C)nc4c3F)c12 [Example 6, 1-((1R,5S)-3-(7-(8-ethynyl-7-fluoro-3-hydroxynaphthalen-1-yl)-8-fluoro-2-(((S)-1-methylpyrrolidin-2-yl)methoxy)pyrido[4,3-d]pyrimidin-4-yl)-3,8-diazabicyclo[3.2.1]octan-8-yl)prop-2-en-1-one] | 0.36 | – | 0.38
C#Cc1c(F)ccc2cc(O)cc(-c3ncc4c(N5C[C@H]6CC[C@@H](C5)N6C(=O)C=C)nc(OC[C@]5(C)CCCN5C)nc4c3F)c12 [Example 12, 1-((1R,5S)-3-(2-(((S)-1,2-dimethylpyrrolidin-2-yl)methoxy)-7-(8-ethynyl-7-fluoro-3-hydroxynaphthalen-1-yl)-8-fluoropyrido[4,3-d]pyrimidin-4-yl)-3,8-diazabicyclo[3.2.1]octan-8-yl)prop-2-en-1-one] | 1.5 | – | 49.7
C#Cc1c(F)ccc2cc(O)cc(-c3ncc4c(N5C[C@H]6CC[C@@H](C5)N6C(=O)C=C)nc(N5CC(N(C)C)C5)nc4c3F)c12 [Example 4, 1-((1R,5S)-3-(2-(3-(dimethylamino)azetidin-1-yl)-7-(8-ethynyl-7-fluoro-3-hydroxynaphthalen-1-yl)-8-fluoropyrido[4,3-d]pyrimidin-4-yl)-3,8-diazabicyclo[3.2.1]octan-8-yl)prop-2-en-1-one] | 3.34 | – | 95.8
C#Cc1c(F)ccc2cc(O)cc(-c3ncc4c(NCC5(N(C)C(=O)C=C)CCC5)nc(OCC56CCCN5CCC6)nc4c3F)c12 [Example 10, N-(1-(((7-(8-ethynyl-7-fluoro-3-hydroxynaphthalen-1-yl)-8-fluoro-2-((tetrahydro-1H-pyrrolizin-7a(5H)-yl)methoxy)pyrido[4,3-d]pyrimidin-4-yl)amino)methyl)cyclobutyl)-N-methylacrylamide] | 2.7 | – | 5.1

Source: patent publication US20250145639A1, “MUTANT KRAS MODULATORS AND USES THEREOF” (NEWAVE PHARMACEUTICAL INC., priority 2021, published 2025)
